Patent US20220095618A1, “HERBICIDAL COMPOSITIONS” (SYNGENTA CROP PROTECTION AG, priority 2019, published 2022)

How the values were obtained:
Experiment in all cases: Post-emergence efficacy of compounds of Formula (I) (B1), glasshouse
Assay type in all cases: in vivo
[1] = system: Amaranthus palmeri (AMAPA); settings: Application Rate 500 g/Ha, evaluated after 13 days; for pest or weed control at 500 g/ha: Amaranthus palmeri, post-emergence, 312 h, read-out: Control of AMAPA after post-emergence application (100=total damage to plant; 0=no damage to plant)
Experimental: (§1) Seeds of a variety of test species were sown in standard Iaom-based soil in pots:— Ipomoea hederacea (IPOHE), Euphorbia heterophylla (EPHHL), Chenopodium album (CHEAL), Amaranthus palmeri (AMAPA), Lolium perenne (LOLPE), Digitaria sanguinalis (DIGSA), Eleusine indica (ELEIN), Echinochloa crus-galli (ECHCG), Setaria faberi (SETFA). After cultivation for 14 days (post-emergence) under controlled conditions in a glasshouse (at 24/16° C., day/night; 14 hours light; 65% humidity), the plants were sprayed with an aqueous spray solution derived from the dissolution of the technical active ingredient Formula (I) in a small amount of acetone and a special solvent and emulsifier mixture referred to as IF50 (11.12% Emulsogen EL360 TM+44.44% N-methylpyrrolidone+44.44% Dowanol DPM glycol ether), to create a 50 g/I solution which was then diluted to required concentration using 0.25% or 1% Empicol ESC70 (Sodium lauryl ether sulphate)+1% ammonium sulphate as diluent. The delivery of the aqueous spray solution was via a laboratory track sprayer which delivered the aqueous spray composition at a rate of 200 litres per hectare, using a flat fan nozzle (Teejet 11002VS) and an application volume of 200 litre/ha (at 2 bar).
(§2) The test plants were then grown in a glasshouse under controlled conditions (at 24/16° C., day/night; 14 hours light; 65% humidity) and watered twice daily. After 13 days the test was evaluated (100=total damage to plant; 0=no damage to plant).

[2] = system: Chenopodium album (CHEAL); settings: Application Rate 500 g/Ha, evaluated after 13 days; for pest or weed control at 500 g/ha: Chenopodium album, post-emergence, 312 h, read-out: Control of CHEAL after post-emergence application (100=total damage to plant; 0=no damage to plant)
Experimental: as §1, §2

[3] = system: Digitaria sanguinalis (DIGSA); settings: Application Rate 500 g/Ha, evaluated after 13 days; for pest or weed control at 500 g/ha: Digitaria sanguinalis, post-emergence, 312 h, read-out: Control of DIGSA after post-emergence application (100=total damage to plant; 0=no damage to plant)
Experimental: as §1, §2

[4] = system: Echinochloa crus-galli (ECHCG); settings: Application Rate 500 g/Ha, evaluated after 13 days; for pest or weed control at 500 g/ha: Echinochloa crus-galli, post-emergence, 312 h, read-out: Control of ECHCG after post-emergence application (100=total damage to plant; 0=no damage to plant)
Experimental: as §1, §2

Eleusine indica (ELEIN) = settings: Application Rate 500 g/Ha, evaluated after 13 days; for pest or weed control at 500 g/ha: Eleusine indica, post-emergence, 312 h, read-out: Control of ELEIN after post-emergence application (100=total damage to plant; 0=no damage to plant)
Experimental: as §1, §2

[5] = system: Euphorbia heterophylla (EPHHL); settings: Application Rate 500 g/Ha, evaluated after 13 days; for pest or weed control at 500 g/ha: Euphorbia heterophylla, post-emergence, 312 h, read-out: Control of EPHHL after post-emergence application (100=total damage to plant; 0=no damage to plant)
Experimental: as §1, §2

[6] = system: Ipomoea hederacea (IPOHE); settings: Application Rate 500 g/Ha, evaluated after 13 days; for pest or weed control at 500 g/ha: Ipomoea hederacea, post-emergence, 312 h, read-out: Control of IPOHE after post-emergence application (100=total damage to plant; 0=no damage to plant)
Experimental: as §1, §2

Lolium perenne (LOLPE) = settings: Application Rate 500 g/Ha, evaluated after 13 days; for pest or weed control at 500 g/ha: Lolium perenne, post-emergence, 312 h, read-out: Control of LOLPE after post-emergence application (100=total damage to plant; 0=no damage to plant)
Experimental: as §1, §2

Setaria faberi (SETFA) = settings: Application Rate 500 g/Ha, evaluated after 13 days; for pest or weed control at 500 g/ha: Setaria faberi, post-emergence, 312 h, read-out: Control of SETFA after post-emergence application (100=total damage to plant; 0=no damage to plant)
Experimental: as §1, §2

Structure (SMILES) | pest or weed control at 500 g/ha [1] | pest or weed control at 500 g/ha [2] | pest or weed control at 500 g/ha [3] | pest or weed control at 500 g/ha [4] | pest or weed control at 500 g/ha (Eleusine indica (ELEIN)) | pest or weed control at 500 g/ha [5] | pest or weed control at 500 g/ha [6] | pest or weed control at 500 g/ha (Lolium perenne (LOLPE)) | pest or weed control at 500 g/ha (Setaria faberi (SETFA)) | Control of AMAPA after post-emergence application (100=total damage to plant; 0=no damage to plant) [1] | Control of CHEAL after post-emergence application (100=total damage to plant; 0=no damage to plant) [2] | Control of DIGSA after post-emergence application (100=total damage to plant; 0=no damage to plant) [3] | Control of ECHCG after post-emergence application (100=total damage to plant; 0=no damage to plant) [4] | Control of ELEIN after post-emergence application (100=total damage to plant; 0=no damage to plant) (Eleusine indica (ELEIN)) | Control of EPHHL after post-emergence application (100=total damage to plant; 0=no damage to plant) [5] | Control of IPOHE after post-emergence application (100=total damage to plant; 0=no damage to plant) [6] | Control of LOLPE after post-emergence application (100=total damage to plant; 0=no damage to plant) (Lolium perenne (LOLPE)) | Control of SETFA after post-emergence application (100=total damage to plant; 0=no damage to plant) (Setaria faberi (SETFA))
CC(C[n+]1ccc(-c2ncccn2)cn1)C(=O)O (stereo not drawn) [Compound 1.024] | 100% | 90% | 90% | 100% | 100% | 100% | 40% | 80% | 100% | – | – | – | – | – | – | – | – | –
CC(C)(C[n+]1ccc(-c2ncccn2)cn1)C(=O)O [Compound 1.022] | 100% | 80% | 100% | 90% | 100% | 100% | 100% | 60% | 100% | – | – | – | – | – | – | – | – | –
O=C(O)CC[n+]1ccc(-c2cnccn2)cn1.[Cl-] [Compound 1.012, 3-(4-pyrazin-2-ylpyridazin-1-ium-1-yl)propanoic acid chloride] | – | – | – | – | – | – | – | – | – | 100 | 100 | 100 | 90 | 90 | 100 | 20 | 50 | 90
N[C@@H](CC[n+]1ccc(-c2ncccn2)cn1)C(=O)O [Compound 1.035, [(1S)-1-carboxy-3-(4-pyrimidin-2-ylpyridazin-1-ium-1-yl)propyl]-ammonium 2,2,2-trifluoroacetate] | 100% | 100% | 90% | 60% | 100% | 90% | 90% | 20% | 100% | – | – | – | – | – | – | – | – | –
CC(C)(CC(=O)O)[n+]1ccc(-c2ncccn2)cn1 [Compound 1.025, 3-methyl-3-(4-pyrimidin-2-ylpyridazin-1-ium-1-yl)butanoic acid 2,2,2-trifluoroacetate] | 100% | 70% | 90% | 100% | 100% | 40% | 50% | 30% | 100% | – | – | – | – | – | – | – | – | –
Cl.O=S(=O)([O-])CC[n+]1ccc(-c2cccnn2)cn1 [Compound 1.031, 2-(4-pyridazin-1-ium-3-ylpyridazin-1-ium-1-yl)ethanesulfonate chloride] | 100% | 90% | 100% | 100% | 100% | 100% | – | 90% | 100% | – | – | – | – | – | – | 70 | – | –
Cc1ccc(-c2cc[n+](CCS(=O)(=O)[O-])nc2)nn1 [Compound 1.014] | 100% | 100% | 100% | 80% | 90% | 100% | – | 90% | 100% | – | – | – | – | – | – | – | – | –
Nc1ccnc(-c2cc[n+](CCC(=O)O)nc2)n1 [Compound 1.016] | – | 90% | 100% | 100% | 100% | 90% | 30% | 70% | 100% | – | – | – | – | – | – | – | – | –
O=C(O)CC[n+]1ccc(-c2ncccn2)cn1.[Cl-] [Compound 1.010, 3-(4-pyrimidin-2-ylpyridazin-1-ium-1-yl)propanoic acid chloride] | – | 100% | 100% | 100% | 100% | 100% | – | – | 100% | – | – | – | – | – | – | 40 | 90 | –
Cc1cnc(-c2cc[n+](CCS(=O)(=O)[O-])nc2)nc1 [Compound 1.009] | – | 100% | 100% | 100% | 100% | 70% | 30% | 80% | 100% | – | – | – | – | – | – | – | – | –
O=C(O)CC[n+]1ccc(-c2ncccn2)cn1.O=C([O-])C(F)(F)F [Compound 1.023, 3-(4-pyrimidin-2-ylpyridazin-1-ium-1-yl)propanoic acid 2,2,2-trifluoroacetate] | – | – | – | – | – | – | – | – | – | 100 | 80 | 100 | 100 | 100 | 100 | 30 | – | 100
Nc1ccnc(-c2cc[n+](CCS(=O)(=O)O)nc2)n1 [Compound 1.008] | – | 100% | 100% | 100% | 100% | 80% | 40% | 60% | 100% | – | – | – | – | – | – | – | – | –
COc1cc(-c2cc[n+](CCCS(=O)(=O)[O-])nc2)ncn1 [Compound 1.019] | – | 100% | 100% | 70% | 90% | 100% | 60% | 30% | 100% | – | – | – | – | – | – | – | – | –
Cc1ccnc(-c2cc[n+](CCC(=O)[O-])nc2)n1 [Compound 1.015] | – | 100% | 100% | 100% | 100% | 80% | 30% | 80% | 100% | – | – | – | – | – | – | – | – | –
Cc1cc(C)nc(-c2cc[n+](CCC(=O)[O-])nc2)n1 [Compound 1.017] | – | 100% | 100% | 70% | 100% | 80% | 50% | 60% | 100% | – | – | – | – | – | – | – | – | –
